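Where inhibition never reached the appropriate level, the endpoint shown equals the highest concentration tested. Otherwise, values were interpolated linearly from a five-concentration, 48-hour dose response in 96-well plates. GI50 = concentration required for 50% inhibition of growth.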 Activity calls are given as the source filed them. Cut-off read from the data, not from the text of the source: active = GI50 up to about 1.1 µM and inactive = higher.
Assays:
Assay in all cases: NCI anticancer screen, dose series, 48 h
SK-OV-3 = test system: SK-OV-3
A498 = test system: A498
OVCAR-4 = test system: OVCAR-4
NCI-H522 = test system: NCI-H522
Malme-3M = test system: Malme-3M
MOLT-4 = test system: MOLT-4
LOX IMVI = test system: LOX IMVI
SNB-75 = test system: SNB-75
SR = test system: SR
OVCAR-8 = test system: OVCAR-8
SNB-19 = test system: SNB-19
SK-MEL-2 = test system: SK-MEL-2
SK-MEL-5 = test system: SK-MEL-5
HT-29 = test system: HT-29
HOP-62 = test system: HOP-62
M14 = test system: M14
UACC-62 = test system: UACC-62
MCF7 = test system: MCF7
EKVX = test system: EKVX
786-0 = test system: 786-0

Structure (SMILES)	GI50 (SK-OV-3)	GI50 (A498)	GI50 (OVCAR-4)	GI50 (NCI-H522)	GI50 (Malme-3M)	GI50 (MOLT-4)	GI50 (LOX IMVI)	GI50 (SNB-75)	GI50 (SR)	GI50 (OVCAR-8)	GI50 (SNB-19)	GI50 (SK-MEL-2)	GI50 (SK-MEL-5)	GI50 (HT-29)	GI50 (HOP-62)	GI50 (M14)	GI50 (UACC-62)	GI50 (MCF7)	GI50 (EKVX)	GI50 (786-0)
c1ccc2cc(-c3cc(-c4cc(-c5ccc6ccccc6c5)on4)no3)ccc2c1	> 100 µM (inactive)	> 100 µM (inactive)	> 100 µM (inactive)	> 100 µM (inactive)	> 100 µM (inactive)	88.9 µM (inactive)	> 100 µM (inactive)	64.7 µM (inactive)	55.7 µM (inactive)	> 100 µM (inactive)	15 µM (inactive)	> 100 µM (inactive)	> 100 µM (inactive)	> 100 µM (inactive)	> 100 µM (inactive)	> 100 µM (inactive)	> 100 µM (inactive)	> 100 µM (inactive)	11.7 µM (inactive)	> 100 µM (inactive)
Oc1cc(-n2cccn2)c(O)cc1-n1cccn1	> 100 µM (inactive)	> 72.8 µM (inactive)	19 µM (inactive)	11.5 µM (inactive)	30.7 µM (inactive)	9.55 µM (inactive)	21 µM (inactive)	> 69.2 µM (inactive)	12.6 µM (inactive)	26.2 µM (inactive)	> 70.1 µM (inactive)	> 88.5 µM (inactive)	32.6 µM (inactive)	23 µM (inactive)	> 63.1 µM (inactive)	27 µM (inactive)	38.9 µM (inactive)	19.1 µM (inactive)	> 69.2 µM (inactive)	16.6 µM (inactive)
CCCCSCc1nc2nc(Cl)c(Cl)nc2[nH]1	18.7 µM (inactive)	21.8 µM (inactive)	29.5 µM (inactive)	17.8 µM (inactive)	20.3 µM (inactive)	19.5 µM (inactive)	21.7 µM (inactive)	19 µM (inactive)	22 µM (inactive)	34.9 µM (inactive)	35.3 µM (inactive)	18.7 µM (inactive)	11.8 µM (inactive)	30.8 µM (inactive)	16.1 µM (inactive)	23.8 µM (inactive)	10.5 µM (inactive)	23.6 µM (inactive)	33.3 µM (inactive)	25.6 µM (inactive)
CCOc1cc2c(cc1O)/C(=N\N)C[C@@H]1[C@@H]2CC[C@]2(C)[C@@H](O)CC[C@@H]12	5.18 µM (inactive)	12.4 µM (inactive)	24.7 µM (inactive)	2.8 µM (inactive)	1.54 µM (inactive)	4.27 µM (inactive)	4.12 µM (inactive)	3.1 µM (inactive)	0.333 µM (active)	7.1 µM (inactive)	3.87 µM (inactive)	4.38 µM (inactive)	1.28 µM (inactive)	9.53 µM (inactive)	3.66 µM (inactive)	4.8 µM (inactive)	0.879 µM (active)	2.68 µM (inactive)	8.28 µM (inactive)	4.48 µM (inactive)
C1=Cc2cccc3occ(c23)C=C1	> 100 µM (inactive)	> 100 µM (inactive)	56.9 µM (inactive)	33 µM (inactive)	> 100 µM (inactive)	25.6 µM (inactive)	17.9 µM (inactive)	–	15.8 µM (inactive)	46.8 µM (inactive)	95.1 µM (inactive)	> 100 µM (inactive)	> 100 µM (inactive)	35.1 µM (inactive)	> 100 µM (inactive)	> 100 µM (inactive)	39.3 µM (inactive)	31.8 µM (inactive)	49.3 µM (inactive)	58.3 µM (inactive)
CCOC(=O)n1c2ccccc2c2c(O)c(OC)c3c(c21)C(=O)NC3=O	34.6 µM (inactive)	78.7 µM (inactive)	44.6 µM (inactive)	22.6 µM (inactive)	35.9 µM (inactive)	19.5 µM (inactive)	15.2 µM (inactive)	37.8 µM (inactive)	20.5 µM (inactive)	31.8 µM (inactive)	84.5 µM (inactive)	> 100 µM (inactive)	37.1 µM (inactive)	24 µM (inactive)	23 µM (inactive)	25.8 µM (inactive)	37.7 µM (inactive)	54.3 µM (inactive)	> 100 µM (inactive)	19.5 µM (inactive)
CSC(=S)N/N=C(\C)c1cccc(C)n1	0.719 µM (active)	2.21 µM (inactive)	0.497 µM (active)	0.0815 µM (active)	0.809 µM (active)	0.123 µM (active)	1.13 µM (inactive)	1.86 µM (inactive)	0.23 µM (active)	0.769 µM (active)	4.04 µM (inactive)	3.48 µM (inactive)	0.558 µM (active)	0.133 µM (active)	0.953 µM (active)	0.312 µM (active)	0.472 µM (active)	0.128 µM (active)	1.16 µM (inactive)	0.361 µM (active)
Nc1ccc(-c2ncc3cc(-c4cccc(-c5cc6cnc(-c7ccc(N)cc7)nc6c6ccccc56)c4)c4ccccc4c3n2)cc1	> 100 µM (inactive)	> 100 µM (inactive)	–	> 100 µM (inactive)	–	> 100 µM (inactive)	> 100 µM (inactive)	> 100 µM (inactive)	> 100 µM (inactive)	> 100 µM (inactive)	> 100 µM (inactive)	> 100 µM (inactive)	34.5 µM (inactive)	> 100 µM (inactive)	> 100 µM (inactive)	60.1 µM (inactive)	> 100 µM (inactive)	> 100 µM (inactive)	> 100 µM (inactive)	> 100 µM (inactive)
N/C(=N\N=C\c1cc2ccccc2s1)c1cnccn1	> 100 µM (inactive)	> 100 µM (inactive)	> 100 µM (inactive)	> 100 µM (inactive)	–	–	> 100 µM (inactive)	29.3 µM (inactive)	6 µM (inactive)	78.2 µM (inactive)	88.3 µM (inactive)	> 100 µM (inactive)	> 100 µM (inactive)	> 100 µM (inactive)	> 100 µM (inactive)	> 100 µM (inactive)	> 100 µM (inactive)	5.24 µM (inactive)	> 100 µM (inactive)	> 100 µM (inactive)
COc1cc2nc(-c3cccs3)[nH]c(=O)c2cc1OC	> 100 µM (inactive)	> 100 µM (inactive)	> 100 µM (inactive)	> 100 µM (inactive)	> 100 µM (inactive)	–	> 100 µM (inactive)	> 100 µM (inactive)	13.8 µM (inactive)	> 100 µM (inactive)	> 100 µM (inactive)	> 100 µM (inactive)	> 100 µM (inactive)	> 100 µM (inactive)	> 100 µM (inactive)	> 100 µM (inactive)	> 100 µM (inactive)	> 100 µM (inactive)	> 100 µM (inactive)	> 100 µM (inactive)
CC1(C)N=c2c(ncn2Cc2ccccc2)=C(C(N)=O)N1	> 100 µM (inactive)	> 100 µM (inactive)	> 100 µM (inactive)	> 100 µM (inactive)	> 100 µM (inactive)	–	> 100 µM (inactive)	> 100 µM (inactive)	> 100 µM (inactive)	> 100 µM (inactive)	> 100 µM (inactive)	> 100 µM (inactive)	> 100 µM (inactive)	> 100 µM (inactive)	> 100 µM (inactive)	> 100 µM (inactive)	> 100 µM (inactive)	> 100 µM (inactive)	> 100 µM (inactive)	> 100 µM (inactive)
O=C(/C=C/NC(=O)OCc1ccccc1)OCc1ccccc1	32.4 µM (inactive)	> 100 µM (inactive)	> 100 µM (inactive)	> 100 µM (inactive)	> 100 µM (inactive)	> 100 µM (inactive)	> 100 µM (inactive)	32.7 µM (inactive)	> 100 µM (inactive)	> 100 µM (inactive)	> 100 µM (inactive)	> 100 µM (inactive)	> 100 µM (inactive)	> 100 µM (inactive)	> 100 µM (inactive)	> 100 µM (inactive)	> 100 µM (inactive)	> 100 µM (inactive)	> 100 µM (inactive)	> 100 µM (inactive)
COc1cc([N+](=O)[O-])c(S(=O)(=O)O)cc1N	> 100 µM (inactive)	> 100 µM (inactive)	> 100 µM (inactive)	> 100 µM (inactive)	–	> 100 µM (inactive)	> 100 µM (inactive)	> 100 µM (inactive)	> 100 µM (inactive)	> 100 µM (inactive)	> 100 µM (inactive)	> 100 µM (inactive)	> 100 µM (inactive)	> 100 µM (inactive)	> 100 µM (inactive)	> 100 µM (inactive)	> 100 µM (inactive)	> 100 µM (inactive)	> 100 µM (inactive)	> 100 µM (inactive)
CN(C)CCCNc1ccc2nnn3c4ccc([N+](=O)[O-])cc4c(=O)c1c23	1.79 µM (inactive)	2.26 µM (inactive)	1.02 µM (active)	1.63 µM (inactive)	3.56 µM (inactive)	0.21 µM (active)	0.641 µM (active)	1.51 µM (inactive)	0.617 µM (active)	0.597 µM (active)	2.73 µM (inactive)	3.12 µM (inactive)	1.7 µM (inactive)	0.55 µM (active)	0.817 µM (active)	2.14 µM (inactive)	4.33 µM (inactive)	1.74 µM (inactive)	2.56 µM (inactive)	0.624 µM (active)
